Tests used:
[1] = test system: human lung carcinoma A549; test: MTT assay, A549; assay type: cell-based
Description: (§6) Solutions of the platinum compounds were freshly prepared in sterile PBS before use and their concentrations quantitated by atomic absorption spectroscopy. Cells were seeded on a 96-well plate (1200 cells per well for cancer cells and 1800 cells per well for the normal lung fibroblasts) in 100 μL RPMI or DMEM media, and incubated for 24 h. […] The cells were then treated with 20 μL of 3-(4,5-dimethylthiazol-2-yl)-2,5-diphenyltetrazolium bromide (MTT) (5 mg/mL in PBS) and incubated for 4 h. The medium was removed, 100 μL of DMSO was added to the cells, and the absorbance of the purple formazan was recorded at 560 nm using a BioTek Synergy HT multi-detection microplate plate reader. Each condition was performed in triplicate and three independent experiments were carried out for each cell line.
(§7) Human prostate carcinoma (PC3) and human cervix carcinoma (HeLa) cells were obtained from the ATCC. The human lung carcinoma cell line A549 was kindly provided by David E. Root (Whitehead Institute for Biomedical Research). Cells were incubated at 37° C. in 5% CO2 and grown in RPMI (PC3) or DMEM (A549 and HeLa) medium supplemented with 10% fetal bovine serum and 1% penicillin/streptomycin. Cells were passaged every 3 to 4 days and restarted from the frozen stock upon reaching passage number 20.
(§8) Solutions of the platinum agents were freshly prepared in sterile PBS before use and the platinum content was quantitated by AAS. Cells were seeded on 96 well plates (1200 cells per well) in 100 μL RPMI or DMEM media\ and incubated for 24 hours. […] The cells were then treated with 20 μL of 3-(4,5-dimethylthiazol-2-yl)-2,5-diphenyltetrazolium bromide (MTT) (5 mg/mL in PBS) and incubated for 4 h. The medium was removed, 100 μL of DMSO were added to the cells, and the absorbance of the purple formazan was recorded at 570 nm using a BioTek Synergy HT multi-detection microplate plate reader. For each cell line, three independent experiments were carried out in triplicate.

[2] = test system: human cervix carcinoma HeLa cells; test: MTT assay, HeLa; assay type: cell-based; conditions: 72-h incubation
Description: as §6, §7, §8

[3] = test system: human breast carcinoma MCF7; test: MTT assay, MCF7; assay type: cell-based; conditions: Table 3, MCF7 Breast, 72-h incubation
Description: (§1) Human colon carcinoma HT29, human breast carcinoma MCF7, human bone sarcoma U2OS, human prostate carcinoma PC3, and human cervix carcinoma HeLa cells were obtained from the ATCC. A2780/CP70 cisplatin-resistant human ovarian cancer cells were kindly provided by Dr. Stephen B. Howell (Moores UCSD Cancer Center) and the human lung carcinoma cell lines A549 and normal lung fibroblast MRC5 by David E. Root (Whitehead Institute for Biomedical Research). Cells were incubated at 37° C. in 5% CO2 and grown in RPMI (HT29, A2780/CP70, and PC3) or DMEM (A549, MRC5, HeLa, MCF7, and U2OS) medium supplemented with 10% fetal bovine serum and 1% penicillin/streptomycin. Cells were passed every 3 to 4 days and restarted from a frozen stock upon reaching pass number 20.
(§2) Solutions of the platinum compounds were freshly prepared in sterile PBS before use and their concentrations quantitated by atomic absorption spectroscopy. […] The cells were then treated with 20 μL of 3-(4,5-dimethylthiazol-2-yl)-2,5-diphenyltetrazolium bromide (MTT) (5 mg/mL in PBS) and incubated for 4 h. The medium was removed, 100 μL of DMSO was added to the cells, and the absorbance of the purple formazan was recorded at 560 nm using a BioTek Synergy HT multi-detection microplate plate reader. Each condition was performed in triplicate and three independent experiments were carried out for each cell line.

human bone sarcoma U2OS = test: MTT assay, U2OS; assay type: cell-based; conditions: 72-h incubation
Description: as §1, §2

[4] = test system: Human colon carcinoma HT29; test: MTT assay, HT29; assay type: cell-based
Description: as §1, §2

NTera2 = test: MTT assay, NTera2; assay type: cell-based, human; conditions: Table 3, NTera2 Testis, 72-h incubation
Description: as §6

[5] = test system: human prostate carcinoma PC3; test: MTT assay, PC3; assay type: cell-based; conditions: Table 3, PC3 Prostate, 72-h incubation
Description: as §6, §7, §8

[6] = test system: normal lung fibroblast MRC5; test: MTT assay, MRC5; assay type: cell-based, human
Description: as §1, §2

calf thymus DNA = test: Ethidium bromide DNA-binding competition, Scatchard analysis; set-up: key: competitive (type A); non-competitive (type D); both (type B); No inhibition of ethidium binding is labeled as type C
Description: Using this approach, it is possible to determine whether the inhibition of ethidium binding is competitive (type A), non-competitive (type D), or both (type B). No inhibition of ethidium binding is labeled as type C.

pGLuc plasmid = test: Platination of pGLuc plasmid; assay type: biochemical
Description: The resulting mixtures were dialyzed (molecular weight cut-off 3.5 kDa) against ddH2O overnight at 4° C. with five changes of ddH2O. The rb values (bound Pt/nucleotide) were determined by UV/Vis and atomic absorption spectroscopy.
In one embodiment, the ratio of bound platinum per plasmid was determined by measuring the Pt concentration by atomic absorption spectroscopy and the DNA concentration by UV/Vis spectroscopy.

[7] = test system: GLuc expression in A549 cells; test: Transcription assay, globally platinated pGLuc, A549; assay type: cell-based, human; conditions: for transcription level (normalized against unplatinated plasmid): Pt/DNA ratio of […] for phenanthriplatin
Description: (§3) Transfection of transcription probes into A549 and HT29 cells with the pGLuc plasmid was carried out using liposomal transfecting agents. Determination of expression levels was tested by Luciferase assays monitored by a luminometer (J. Am. Chem. Soc. 2010, 132, 7429-7435). A549 cells were plated in 96-well plates at 2,000 cells/well and HT29 cells were plated in 96-well plates at 6,000 cells/well. After 48 h incubation (at ˜30% confluence), cells were transfected with 50 ng of platinated plasmids in 25 μL Opti-MEM and 0.125 μL Lipofectamine 2000, and subsequently 50 μL of antibiotics-free DMEM supplemented with 10% FBS. After 2 h, the cells were washed with medium and 100 μL of fresh medium was added. The experiment was carried out in quadruplicate.
(§4) GLuc activity was monitored using a luminescence plate reader (Synergy 2, BioTek, Winooski, Vt., USA). A 10 μL volume of medium at different time points (12, 24, 36, 48, 60 h) was transferred into opaque white 96-well plates, and 25 μL of GLuc assay solution (10 μM colelenterazine (NanoLight Technologies, Pinetop, Ariz., USA) in 2.5 mM acidified methanol (100 mM HCl), buffer (10 mM Tris-HCl pH 7.8, 1 mM EDTA, 0.6 M NaCl)) was added by the automatic injector of the instrument.
(§5) In another embodiment, A549 or HT29 cells were transfected using the platinated transcription probes, and transcription levels were investigated by determining GLuc expression as measured by […] following addition of coelenterazine as a substrate for the exported enzyme. The emission intensities were normalized against unplatinated plasmids as a control. Transcription profiles were obtained by plotting normalized levels of GLuc expression against platination levels (Pt/plasmid ratio) at five different time points. […] An increase in D0 value at different time points represents restoration of transcription.

[8] = test system: GLuc expression in HT29 cells; test: Transcription assay, globally platinated pGLuc, HT29; assay type: cell-based, human; conditions: for transcription level (normalized against unplatinated plasmid): Pt/DNA ratio of […] for phenanthriplatin
Description: as §3, §4, §5

[9] = D2O at 37° C.
Description: (§9) The 1-D ^1H NMR kinetic studies were performed in duplicate as a standard time-arrayed experiment using a variable delayed list. Incremented 1-D spectra were processed in exactly the same way and signals of aromatic amine ligands from platinum compounds were integrated. The relative concentrations of the platinum compound at each time point were calculated from peak integrals. […] Reactions of platinum compounds with 5′-dGMP were performed in NMR tubes containing 2 mM of the platinum compounds and 32 mM (16 equiv) of 5′-dGMP in 10 mM PBS buffer, D2O, pH*7.4 at 37° C.

5′-dGMP = conditions: 16 equiv 5′-dGMP, 37° C., PBS pH 7.4
Description: as §9

[10] = equimolar N-AcMet, 37° C.
Description: NMR spectra were collected on a Varian 500 spectrometer equipped with a triple-resonance broadband inverse probe and a variable temperature unit. The 1-D ^1H NMR kinetic studies were performed in duplicate as a standard time-arrayed experiment using a variable delayed list. Incremented 1-D spectra were processed in exactly the same way and signals of aromatic amine ligands from platinum compounds were integrated. The relative concentrations of the platinum compound at each time point were calculated from peak integrals. […] Reactions of platinum compounds with N-AcMet were performed in NMR tubes containing 2 mM of the Pt complex and 2 mM (1 equiv) of N-AcMet in 10 mM PBS buffer, D2O, pH*7.4 at 37° C. […] Deuterated 3-(trimethylsilyl)propionic acid sodium salt (TMS-PFASS) was used as an internal standard. The pH* values are the measured pH values without correction for the effect of deuterium on the electrode.

[11] = Table 3, A549 Lung, 72-h incubation
[12] = Table 4, A549 human lung carcinoma, 72 h incubation
[13] = Table 3, HT29 Colorectal, 72-h incubation

With `O=C1[O][Pt]2([NH][C@@H]3CCCC[C@H]3[NH]2)[O]C1=O` [oxaliplatin] as the compound, how does the IC50 [1, 11] read?
Its IC50 is 6.79 ± 0.26 µM.

And the IC50 [1, 12]?
Its IC50 is 10.5 ± 0.18 µM.

What about the IC50 ([2]; Table 3, HeLa Cervix) of the same compound?
The IC50 was 11.8 ± 1.4 µM.

What about the IC50 [3] of the same compound?
The IC50 was 17.9 ± 2.7 µM.

And the IC50 (human bone sarcoma U2OS; Table 3, U2OS Bone)?
Its IC50 is 8.67 ± 0.59 µM.

And the IC50 [4, 13]?
Its IC50 is 1.81 ± 1.15 µM.

And the IC50 (NTera2)?
The IC50 was 1.12 ± 0.08 µM.

What about the IC50 [5] of the same compound?
Its IC50 is 13.2 ± 4 µM.

What does the source list for `N.N.O=[N+]([O-])[O-].[Cl][Pt+].c1ccncc1` [pyriplatin, cis-[Pt(NH3)2(pyridine)Cl]NO3]?
IC50 [1, 11]: 52.1 ± 2.3 µM; IC50 [1, 12]: 52.1 ± 2.25 µM; IC50 ([1]; Table 5, A549, 72-h incubation): 52.1 ± 2.3 µM; IC50 ([2]; Table 3, HeLa Cervix): 31.3 ± 2.8 µM; IC50 ([2]; Table 5, HeLa): 31.3 ± 2.8 µM; IC50 [3]: 109 ± 10 µM; IC50 (human bone sarcoma U2OS; Table 3, U2OS Bone): 78.9 ± 6.7 µM; IC50 (human bone sarcoma U2OS; Table 5, U2OS): 78.9 ± 6.7 µM; IC50 [4, 13]: 144 ± 10 µM; IC50 ([4]; Table 5, HT29, 72-h incubation): 144 ± 10 µM; IC50 (NTera2): 5.16 ± 0.96 µM; IC50 [5]: 47.9 ± 9.2 µM; IC50 ([6]; Table 4, MRC5 normal lung fibroblast, 72 h incubation): 92.1 ± 9.9 µM; IC50 ([6]; Table 5, MRC5, 72-h incubation): 92.1 ± 9.9 µM; type of inhibition of ethidium binding (Scatchard) (calf thymus DNA; 12-h incubation period): type C; type of inhibition of ethidium binding (Scatchard) (calf thymus DNA; 1 min incubation period): type C; Pt per plasmid (pGLuc plasmid; rf 0.0016, 16 h at 37° C.): 13.33 Pt per plasmid; rb (bound Pt/nucleotide) (pGLuc plasmid; rf 0.0016, 16 h at 37° C.): 0.0017; Pt per plasmid (pGLuc plasmid; rf 0.004, 16 h at 37° C.): 31.19 Pt per plasmid; rb (bound Pt/nucleotide) (pGLuc plasmid; rf 0.004, 16 h at 37° C.): 0.0039; Pt per plasmid (pGLuc plasmid; rf 0.0076, 16 h at 37° C.): 57.96 Pt per plasmid; rb (bound Pt/nucleotide) (pGLuc plasmid; rf 0.0076, 16 h at 37° C.): 0.0073; Pt per plasmid (pGLuc plasmid; rf 0.015, 16 h at 37° C.): 117.31 Pt per plasmid; rb (bound Pt/nucleotide) (pGLuc plasmid; rf 0.015, 16 h at 37° C.): 0.0015; transcription level (normalized against unplatinated plasmid) ([7]; A549, 12 h): 55.2%; D0 (Pt lesions per plasmid required to reduce transcription levels to 37% of control) ([7]; A549, 12 h after transfection): 39.2 Pt/plasmid; D0 (Pt lesions per plasmid required to reduce transcription levels to 37% of control) ([7]; A549, 24 h after transfection): 58.5 Pt/plasmid; D0 (Pt lesions per plasmid required to reduce transcription levels to 37% of control) ([7]; A549, 36 h after transfection): 68.8 Pt/plasmid; D0 (Pt lesions per plasmid required to reduce transcription levels to 37% of control) ([7]; A549, 48 h after transfection): 85.2 Pt/plasmid; transcription level (normalized against unplatinated plasmid) ([7]; A549, 60 h): 66.8%; D0 (Pt lesions per plasmid required to reduce transcription levels to 37% of control) ([7]; A549, 60 h after transfection): 89.1 Pt/plasmid; transcription level (normalized against unplatinated plasmid) ([8]; HT29, 12 h): 55.3%; D0 (Pt lesions per plasmid required to reduce transcription levels to 37% of control) ([8]; HT29, 12 h after transfection): 35.6 Pt/plasmid; D0 (Pt lesions per plasmid required to reduce transcription levels to 37% of control) ([8]; HT29, 24 h after transfection): 40.5 Pt/plasmid; D0 (Pt lesions per plasmid required to reduce transcription levels to 37% of control) ([8]; HT29, 36 h after transfection): 42.9 Pt/plasmid; D0 (Pt lesions per plasmid required to reduce transcription levels to 37% of control) ([8]; HT29, 48 h after transfection): 44.5 Pt/plasmid; transcription level (normalized against unplatinated plasmid) ([8]; HT29, 60 h): 75.2%; D0 (Pt lesions per plasmid required to reduce transcription levels to 37% of control) ([8]; HT29, 60 h after transfection): 49.3 Pt/plasmid; equilibrium constant for aquation [9]: approximately 0.05; time after which aquation reaction is complete (equilibrium with aqua analogue) [9]: 1 h; pseudo-first order rate constant, reaction with 5′-dGMP (5′-dGMP): 0.29 h⁻¹; reaction with N-AcMet more rapid than that for phenanthriplatin [10]: > 10 fold; second-order rate constant, reaction with N-AcMet [10]: 0.156 M⁻¹ s⁻¹

For “cis-[Pt(NH3)2 (1-methylimidazole)-Cl]NO3”, which IC50 ([1]; Table 5, A549, 72-h incubation) is on record?
The IC50 was 62 ± 0.8 µM.

And the IC50 ([4]; Table 5, HT29, 72-h incubation)?
The IC50 was 53.4 ± 8.5 µM.

And the IC50 ([6]; Table 5, MRC5, 72-h incubation)?
Its IC50 is 40.5 ± 1.1 µM.

For cis-[Pt(NH3)2 (2-methylpyridine)Cl]NO3, which IC50 ([1]; Table 5, A549, 72-h incubation) is on record?
Its IC50 is 50.6 ± 1.7 µM.

And the IC50 ([4]; Table 5, HT29, 72-h incubation)?
Its IC50 is 63.8 ± 1.9 µM.

And the IC50 ([6]; Table 5, MRC5, 72-h incubation)?
Its IC50 is 58.9 ± 4.2 µM.

For cis-[Pt(NH3)2(quinoline)Cl]NO3, which IC50 ([1]; Table 5, A549, 72-h incubation) is on record?
The IC50 was 8.11 ± 0.68 µM.

And the IC50 ([2]; Table 5, HeLa)?
The IC50 was 12.2 ± 0.8 µM.

What about the IC50 (human bone sarcoma U2OS; Table 5, U2OS) of the same compound?
Its IC50 is 23.5 ± 2.7 µM.

What about the IC50 ([4]; Table 5, HT29, 72-h incubation) of the same compound?
The IC50 was 38 ± 4.5 µM.

What about the IC50 ([6]; Table 5, MRC5, 72-h incubation) of the same compound?
The IC50 was 23.5 ± 1.6 µM.

Reference: patent US9034862B2, “Compositions and methods for the treatment of cancer” (priority 2011, dated 2015)
